The numbers were not newly measured in patent US20070259951A1, “Compounds, Compositions and Methods” (SMITHKLINE BEECHAM CORPORATION, priority 2003, published 2007), which cites them from elsewhere.

Structures are written as SMILES.

The test system of the data set is A549 cells. The following applies: data provided by National Cancer Institute.
For `NC(=O)NO` [hydroxyurea], the GI50 is 500000 nM.

As to `O=c1[nH]cc(F)c(=O)[nH]1` [5-fluorouracil], the concentration for 50% growth inhibition (GI50) is 1000 nM.

Regarding `COc1cccc2c1C(=O)c1c(O)c3c(c(O)c1C2=O)C[C@@](O)(C(=O)CO)C[C@@H]3O[C@H]1C[C@H](N)[C@H](O)[C@H](C)O1` [doxorubicin], the GI50 is 63 nM.

Turning to `CC(=O)O[C@H]1C(=O)[C@@]2(C)[C@H]([C@H](OC(=O)c3ccccc3)[C@]3(O)C[C@H](OC(=O)[C@H](O)[C@@H](NC(=O)c4ccccc4)c4ccccc4)C(C)=C1C3(C)C)[C@]1(OC(C)=O)CO[C@@H]1C[C@@H]2O` [paclitaxel], the concentration for 50% growth inhibition (GI50) is 4 nM.
